Legend:
rats [1] = experiment: Elevated plus maze; type: in vivo
Protocol: (§1) In this instance the animals were 9 weeks old at the initiation of drug exposures and we selected just the high (20 mg/kg) dose of 5-MeO-DMT from the molecular study. […] Due to the number of behavioral paradigms to be completed by each animal we divided the study into two cohorts staggered by two weeks with 8 animals coming from each cohort to make up the 16 animals for each treatment group. 23 hours after 5-MeO-DMT administration the animals were introduced to the open field arena where they were allowed to freely explore the area for 5 mins. Following the open field test (OFT) animals were returned to their home cage for 2 hours before beginning either the elevated plus maze (EPM) or pre-pulse inhibition (PPI) testing. 24 hours after completing the OFT animals were returned to the chamber for the first session in novel object (NO1) testing. The animals were returned to their home cage for 2 hours before beginning the EPM or PPI test. 24 hours after NO1 the animals returned to the open field chamber for the second session in novel object (N02) testing. After completing N02 animals were returned to their home cage for 2 hours before they underwent the forced swim test (FST) pre-test. 24 hours later the animals were returned to the FS cylinders for the FST. Upon completion of the FST all animals were euthanized. A timeline of this experimental cohort is described in FIG. 8A.
(§2) The experiment was conducted as described for cohort 1 for the first 13 days of injections. There are a number of notable differences in experimental procedures between the two cohorts of animals to be highlighted. […] Finally, the dose of 5-MeO-DMT was reduced to 10 mg/kg. The order and timing of all the behavioral paradigms were kept constant between the cohorts. A timeline of this experimental cohort is described in FIG. 8B. Additionally, 5-MeO-DMT administrations were staggered so animals could be observed for the duration of acute drug effects and to ensure recovery prior to the next animal being injected. The typical symptoms of psychedelic drug administration outlined above were reproduced in all animals administered 5-MeO-DMT.
Our EPM apparatus consisted of a plus-shaped white plastic platform positioned 100 cm above the ground. Two opposite arms of the maze were bordered by vertical walls measuring 20 cm high, with the other two arms open to the environment with no edges. Animals were placed into the centre of the maze facing a closed arm and allowed to explore freely for 5 min. At the conclusion of the test, rats were returned to their home cages and the apparatus was cleaned with 2% distal. Animal movement was recorded during the trial using Any-Maze software. Time spent in open or closed arms, number of entries into open arms and number of grooming behaviors were all quantified (FIG. 10A-10B). Behavioral assessment was conducted in a quiet room under low-level red-light illumination. Behaviors were scored by two observers blind to experimental conditions.

rats [2] = experiment: Pre-pulse inhibition of startle; type: in vivo; details: for treatment effects on PPI: cohort 1 (20 mg/kg 5-MeO-DMT)
Protocol: as §1, §2
The PPI protocol employed was based on a procedure previously described by Geyer and colleagues (Geyer, M. A., K. Krebs-Thomson, D. L. Braff & N. R. Swerdlow (2001) Pharmacological studies of prepulse inhibition models of sensorimotor gating deficits in schizophrenia: a decade in review. Psychopharmnacology, 156, 117-154). Each rat was restrained in an appropriately sized cylindrical holder that was placed on a movement-sensitive platform and maintained in a soundproof chamber. The animal was allowed to habituate to a white noise background of 70 dB for 5 mins before receiving 5 20 ms startle trials of 120 dB separated by randomized intervals of 10-20 s. Immediately thereafter, each rat received 5 separate presentations with one of the pre-pulse stimuli of 72, 76, 80, or 84 dB followed 100 ms later by the 120 dB acoustic startle stimulus. Each trial was separated by a time interval of 10-20 s. The 4 pre-pulse stimuli were delivered in a randomised manner and included periods in which there was no pre-pulse or startle stimulus. The session terminated with five further startle trials. Randomisation of the sound signals delivered and quantification of the startle movements were recorded from the movement-sensitive platform. Signals were integrated using the software supplied by the manufacturers of equipment hardware (MED-Associates Inc., St. Albans, VT, USA).

5-HT2Rs = details: canonical signaling activity measured; read-out: affinity for the 5-HT2Rs; cited from earlier work
[3] = acute administration in animals; cited from earlier work
[4] = cohort 1, either treatment or the combination
[5] = cohort 2, either treatment or their combination

Row | SMILES | secondary anxiety measures, stretch-attenuated posture (SAP) or head dipping (rats [1]; cohort 1) | duration of time spent in the open arms (rats [1]; [4]) | number of entries into the open arms (rats [1]; [4]) | duration of time spent in the open arms (rats [1]; cohort 2, cocaine p=0.0031) | head dipping (rats [1]; cohort 2, cocaine p=0.0054, no post hoc differences) | number of entries into the open arms (rats [1]; cohort 2, cocaine p=0.0055) | total distance travelled (rats [1]; [5]) | treatment effects on PPI (rats [2]) | percentage inhibition of startle with change in intensity of the pre-pulse (rats [2]; cohort 1, cocaine alone) | total distance travelled, main effect (rats [1]; cohort 1, 5-MeO-DMT p<0.0001) | total distance travelled (rats [1]; cohort 1, cocaine+20 mg/kg 5-MeO-DMT relative to cocaine alone) | duration of time spent on the open arms (rats [1]; cohort 2, cocaine and 5-MeO-DMT (10 mg/kg) combination relative to control and 5-MeO-DMT alone) | Ki (5-HT2Rs) [µM] | acute toxic signs [3] | inhibition of the startle response at 80 dB or 84 dB relative to the 72 dB pre-pulse (rats [2]; cohort 1, 5-Meo-treated animals) | percentage inhibition of startle with change in intensity of the pre-pulse (rats [2]; cohort 1, cocaine+20 mg/kg 5-MeO-DMT combination) | PPI at the 80 dB pre-pulse (rats [2]; cohort 1, combination group relative to control and 5-MeO-DMT alone) | treatment effect on PPI (rats [2]; cohort 2 (10 mg/kg 5-MeO-DMT)) | PPI at 84 dB relative to 72 dB pre-pulse (rats [2]; cohort 2, cocaine+10 mg/kg 5-MeO-DMT)
1 | COC(=O)[C@H]1[C@@H](OC(=O)c2ccccc2)C[C@@H]2CC[C@H]1N2C.Cl [cocaine, cocaine hydrochloride, reference compound] | no treatment effects | unaffected by either treatment or the combination | unaffected by either treatment or the combination | significantly affected | significantly affected | significantly affected | no effect of either treatment or their combination | no treatment effects on PPI | no change in percentage inhibition of startle |  |  |  |  |  |  |  |  |  | 
2 | COc1ccc2[nH]cc(CCN(C)C)c2c1 [5-MeO-DMT, 5-methoxy-N,N-dimethyltryptamine] | no treatment effects | unaffected by either treatment or the combination | unaffected by either treatment or the combination |  |  |  | no effect of either treatment or their combination | no treatment effects on PPI |  | significant effect | reduction in the total distance travelled | significantly increased | > 1 | dose-dependently produce ataxia, mydriasis, head nodding, tremor, convulsion and shivering | significant increase in the inhibition of the startle response | no change in percentage inhibition of startle | significant attenuation of PPI | no treatment effect on PPI | significant increase in PPI

From patent US20240299353A1, “COMPOSITIONS AND METHODS FOR TREATING […] 5-MEO-DMT” (Alvarius Pharmaceuticals Ltd., priority 2021, published 2024)
